According to patent US20250042918A1, “COMPOUNDS” (Fundación Del Sector Públlco Estatal Centro Nacional De …, priority 2021, published 2025):

What was measured:
PIM-1 = target: T1, PIM-1 (Homo sapiens, UniProt P11309); assay: Protein PIM kinase assay (ADP Hunter Plus); assay type: biochemical; conditions: 100 μM ATP, 100 μM PIMtide
T1 construct: made in house
Description: (§1) PIM kinase activities were measured by using the commercial ADP Hunter™ Plus assay (DiscoveRx Ref. #33-016), a homogeneous assay measuring ADP accumulation, as a universal product of kinase activity. PIM-1 and PIM-2 proteins were obtained by purification as it is described by Martinez-Gonzalez et. al. Eur. J. Med Chem. 2019, 168, 87-109 and PIM-3 was acquired from Millipore (Cat #14-738). The assay was done following general manufacturer recommendations and adapting protein and substrates concentrations to optimal conditions. Kinase buffer was 15 mM HEPES, pH 7.4, 20 mM NaCl, 1 mM EGTA, 0.02% Tween-20, 10 mM MgCl2 and 0.1 mg/mL LBGG (bovine y-globulin). All PIM kinases assays were done at 100 μM PIM tide (ARKRRRHPSGPPTA), as peptide substrate, and 100 μM ATP. Protein concentration was 50, 350 and 200 pg/μl for PIM-1, 2 and 3, respectively. In order to calculate the IC50 of described compounds, serial 1:3 dilutions were prepared and the reaction started by addition of ATP. Incubation was done for 1 h at 25° C. Reagents A and B (DiscoveRx) were sequentially added to the wells and plates were incubated for 30 min at 37° C. Fluorescence counts were read in a Victor instrument (Perkin Elmer) with the recommended settings (544 and 580 nm as excitation and emission wavelengths, respectively). Values were plot against inhibitor concentration and fit to a sigmoid dose-response curve using Activity Base software from IDBS.

PIM-2 = target: T2, PIM-2 (Homo sapiens, UniProt Q9P1W9); assay: Protein PIM kinase assay (ADP Hunter Plus); assay type: biochemical; conditions: 100 μM ATP, 100 μM PIMtide
T2 construct: made in house
Description: as §1

PIM-3 = target: T3, PIM-3 (Homo sapiens, UniProt Q86V86); assay: Protein PIM kinase assay (ADP Hunter Plus); assay type: biochemical; conditions: 100 μM ATP, 100 μM PIMtide
T3 construct: purchased Millipore 14-738
Description: as §1

[1] = test system: human leukaemia KG-1 subcutaneous xenograft; assay: In vivo efficacy in leukaemia model, subcutaneous xenograft; conditions: KG-1 xenograft, CB-17 SCID mice, oral 25 BID, 50 and 100 mg/kg QD, 21 days
Description: The anti-tumour efficacy of the compound of Example 1 was measured in human leukaemia KG-1 subcutaneous xenograft models in CB-17 SCID mice.
Mice grouping was on day 0 (DO) and Example 1 25 BID*21 group was started on the evening of day 0 (DO), other groups were started on the morning of day 1 (D1). At the 21 days of the treatment, 8 h and 24h post the last dose, 4 mice each from vehicle group, Example 1 25 mg/kg BID group and Example 1 50 mg/kg group were subjected tumour collection.
Animals: Female mice (Mus musculus) strain: CB-17 SCID; 6-8 weeks old Body weight: 18-20 g; were obtained from Shanghai Lingchang BioTech Co., Ltd. Of the 59 obtained, 40 were grouped for efficacy study. The mice were kept in individual ventilation cages at constant temperature (20˜26° C.) and humidity (40-70%) with 5 animals in each cage. […]
Tumour Measurements and the Endpoints: The major endpoint was tumour growth delay or cure. Tumour size was measured thrice weekly in two dimensions using a caliper, and the volume was expressed in mm^3 using the formula: V=0.5 a×b^2 where a and b were the long and short diameters of the tumour, respectively. […] TGI was calculated according to the following equation: […]

[2] = test system: Naïve CD4+ T cells, iTreg cells; assay: CD4+ T cell differentiation under iTreg conditions (FoxP3, FACS); assay type: cell-based, mice; conditions: 12.5 nM
Description: Naïve CD4^+ T cells were purified from mice spleens and lymph nodes using positive selection by magnetic beads (CD4 L3T4 Kit, Miltenyi Biotec, UK). The purified T cells were activated by plate-bound αCD3ε (1 μg/ml; 2C11) and αCD28 (3 μg/ml; 37.51) in the presence or absence of the compound of Example 1 or Cyclosporin A (Sigma Aldrich), and cultured for 72 hrs under Th1 conditions (IL-12 [20 ng/ml]+αIL-4 (11B1) [10 μg/ml]), 72 hrs under Th17 conditions (αIFNγ [10 μg/ml]+αIL-4 [5 μg/ml]+IL-6 [[…]]+TGFβ(5 ng/ml)), and 96 hrs under iTreg conditions (TGFβ (5 ng/ml)) at 37° C.
Intracellular protein expression was evaluated by first restimulating the cells with phorbol-12-myristate 13-acetate (PMA)(10 ng/ml) (Sigma Aldrich), ionomycin (1 μg/ml) (Sigma Aldrich) and Brefeldin A (5 μg/ml) (eBioscience) for 4-6 hours at 37° C. […] Fc block (93) and all fluorescence dye labelled antibodies used αCD4 (GK1.5), αIFNγ (XMG1.2), αIL-17a (17B7), αFOXP3 (NRRF-30; FJK-16S) were purchased from eBiosciences (Thermo Fisher, UK). Multi-parameter analysis was performed on an LSR/Fortessa (Becton Dickinson Biosciences (BD)) and analysed using FlowJo software (Tree Star).

T1 sequence (P11309 whole entry): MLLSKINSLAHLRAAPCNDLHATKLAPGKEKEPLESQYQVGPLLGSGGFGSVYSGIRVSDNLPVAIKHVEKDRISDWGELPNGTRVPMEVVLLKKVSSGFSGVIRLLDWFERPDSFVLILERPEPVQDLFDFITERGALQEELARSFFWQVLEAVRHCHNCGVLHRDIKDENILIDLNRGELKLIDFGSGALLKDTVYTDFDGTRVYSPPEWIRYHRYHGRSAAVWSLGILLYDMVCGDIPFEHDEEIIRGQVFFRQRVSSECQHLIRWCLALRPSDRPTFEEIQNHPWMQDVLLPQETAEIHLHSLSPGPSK
T2 sequence (Q9P1W9 whole entry): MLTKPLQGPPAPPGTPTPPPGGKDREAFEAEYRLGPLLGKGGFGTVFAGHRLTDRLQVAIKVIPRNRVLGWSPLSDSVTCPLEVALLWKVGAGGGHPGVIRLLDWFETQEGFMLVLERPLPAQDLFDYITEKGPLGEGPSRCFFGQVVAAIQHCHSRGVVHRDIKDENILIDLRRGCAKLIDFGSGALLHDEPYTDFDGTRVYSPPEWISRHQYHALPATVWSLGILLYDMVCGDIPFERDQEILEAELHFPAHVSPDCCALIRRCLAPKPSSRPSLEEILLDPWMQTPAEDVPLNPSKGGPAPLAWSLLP

IC50 (PIM-1): 1 to 5 nM | IC50 (PIM-2): 5 to 10 nM | IC50 (PIM-3): 5 to 10 nM
Structure (SMILES): CN1CCOc2c1c(N[C@H]1CC[C@@](C)(O)CC1)nn1c(-c3cccc(OC(F)(F)F)c3)nnc21 [Example 1, 1-Methyl-4-[6-methyl-3-(3-trifluoromethoxy-phenyl)-7,8-dihydro-6H-9-oxa-1,2,3a,4,6-pentaaza-cyclopenta[a]naphthalen-5-ylamino]-cyclohexanol]
anti-tumour efficacy (tumour volume) [1]: effective | generation of immunoregulatory iTreg cells [2]: enhancing the generation | expression of the transcription factor FoxP3 ([2]; 96 hrs iTreg conditions, FACS): significantly increased expression
